# From US20090209619A1, “Depression of herg k+ channel function in mammallan cells and applications to the control of cancer cells division” (priority 2004, published 2009)
# Marks after values point to notes of the source that are not given here.
# Experiments:
# HL-1 = test: Cancer cell proliferation by population doubling time (PDT), HL-1; format: cell-based, murine; conditions: blocker 1 μM; for population doubling time: 30 min in serum-free medium, cells counted 5 h and 48 h after seeding
# Method: (§1) The human breast cancer cell lines MCF-7, BT132, and Sk-Br-3, human neuroblastoma cell line SHSY5Y, murine atrial tumor cell line HL-1 were used. These cell are known to express HERG channels. For chemical blocking of HERG conductance, tumor cells were incubated with dofetilide (1 μM), the anti-arrhythmic agent E4031 (1 μM) or cisapride (1 μM) for 30 min in serum-free medium. Control experiments wherein no dofetilide, no E-4031 and no cisapride was used were also performed.
# (§2) Cell proliferation was assessed by characterizing the log phase growth with population doubling time (PDT) calculated by the equation: 1/(3.32*(log NH−log NI)/(t2−t1)), where NH is the number of cells harvested at the end of the growth period (at time t2) and NI is the number of cells at 5 hours (t1) after seed. Cells were counted by a flow cytometer (EPICS XL; Beckman Coulter Canada, Inc.), and the number obtained at 5 h (t1) after seeding was taken as an initial cell number (NI), and the number at 48 h (t2) after seeding was taken as an endpoint number (NH). The longer the PDT is, the slower the growth is.
# (§3) In experiments involving interference RNA, in this case siRNA, the cells were transfected with siRNA using lipofectamine-2000 as a carrier to deliver the siRNA to the cells, according to the manufacturer's protocols. The sequence of our siRNA targeting HERG position 3498 bp is […] (SEQ ID NO:1). A negative control targeting the following sequence: […] (SEQ ID NO:2) has been used. The siRNA is designed as cassette using U6 as the promoter and its efficacy was validated by its ability to decrease HERG mRNA by around 78% determined by real-time RT-PCR. SiRNA targeting the following 2 target sequences: […] (SEQ ID 03) (starting at 255 bp) and […] (SEQ ID 04) (starting at 2609 bp) has also been tested. As an siRNA cassette is used, these sequences (SEQ ID 01-04) are also DNA sequences that are injected in the cells to produce in situ the siRNA that will interfere with expression of the HERG gene.
# MCF-7 [1] = test: Cancer cell proliferation by population doubling time (PDT), MCF-7; format: cell-based, human; conditions: blocker 1 μM; for population doubling time: 30 min in serum-free medium, cells counted 5 h and 48 h after seeding
# Method: as §1, §2, §3
# SHSY5Y = test: Cancer cell proliferation by population doubling time (PDT), SHSY5Y; format: cell-based, human; conditions: blocker 1 μM; for population doubling time: 30 min in serum-free medium, cells counted 5 h and 48 h after seeding
# Method: as §1, §2, §3
# Sk-Br-3 [2] = test: Cancer cell proliferation by population doubling time (PDT), Sk-Br-3; format: cell-based, human; conditions: blocker 1 μM; for population doubling time: 30 min in serum-free medium, cells counted 5 h and 48 h after seeding
# Method: as §1, §2, §3
# BT132 = test: Cancer cell proliferation by population doubling time (PDT), BT132; format: cell-based, human; conditions: blocker 1 μM; for population doubling time: 30 min in serum-free medium, cells counted 5 h and 48 h after seeding
# Method: as §1, §2, §3
# MCF-7 [3] = test: Tumor growth in nude mice inoculated subcutaneously with MCF-7; conditions: for tumor volume, Day 7 / tumor volume, Day 1: MCF-7 tumor in nude mice, 5 μg/tumor single intratumoral injection; for tumor volume, Day 7: 7 days after treatment; for tumor volume, Day 1: day of treatment; for % changes of tumor volume over control: MCF-7 tumor, 5 μg/tumor, day 7
# SK-BR-3 [4] = test: Tumor growth in nude mice inoculated subcutaneously with SK-BR-3; conditions: for tumor volume, Day 7 / tumor volume, Day 1: Sk-Br-3 tumor in nude mice, 5 μg/tumor single intratumoral injection; for tumor volume, Day 7: 7 days after treatment; for tumor volume, Day 1: day of treatment; for % changes of tumor volume over control: Sk-Br-3 tumor, 5 μg/tumor, day 7
# MCF-7 cells = conditions: cited from earlier work
# EAG = biological target: T1, EAG (Homo sapiens, UniProt O95259); conditions: extracellular perfusion; cited from earlier work
# T1 sequence (O95259 1-989): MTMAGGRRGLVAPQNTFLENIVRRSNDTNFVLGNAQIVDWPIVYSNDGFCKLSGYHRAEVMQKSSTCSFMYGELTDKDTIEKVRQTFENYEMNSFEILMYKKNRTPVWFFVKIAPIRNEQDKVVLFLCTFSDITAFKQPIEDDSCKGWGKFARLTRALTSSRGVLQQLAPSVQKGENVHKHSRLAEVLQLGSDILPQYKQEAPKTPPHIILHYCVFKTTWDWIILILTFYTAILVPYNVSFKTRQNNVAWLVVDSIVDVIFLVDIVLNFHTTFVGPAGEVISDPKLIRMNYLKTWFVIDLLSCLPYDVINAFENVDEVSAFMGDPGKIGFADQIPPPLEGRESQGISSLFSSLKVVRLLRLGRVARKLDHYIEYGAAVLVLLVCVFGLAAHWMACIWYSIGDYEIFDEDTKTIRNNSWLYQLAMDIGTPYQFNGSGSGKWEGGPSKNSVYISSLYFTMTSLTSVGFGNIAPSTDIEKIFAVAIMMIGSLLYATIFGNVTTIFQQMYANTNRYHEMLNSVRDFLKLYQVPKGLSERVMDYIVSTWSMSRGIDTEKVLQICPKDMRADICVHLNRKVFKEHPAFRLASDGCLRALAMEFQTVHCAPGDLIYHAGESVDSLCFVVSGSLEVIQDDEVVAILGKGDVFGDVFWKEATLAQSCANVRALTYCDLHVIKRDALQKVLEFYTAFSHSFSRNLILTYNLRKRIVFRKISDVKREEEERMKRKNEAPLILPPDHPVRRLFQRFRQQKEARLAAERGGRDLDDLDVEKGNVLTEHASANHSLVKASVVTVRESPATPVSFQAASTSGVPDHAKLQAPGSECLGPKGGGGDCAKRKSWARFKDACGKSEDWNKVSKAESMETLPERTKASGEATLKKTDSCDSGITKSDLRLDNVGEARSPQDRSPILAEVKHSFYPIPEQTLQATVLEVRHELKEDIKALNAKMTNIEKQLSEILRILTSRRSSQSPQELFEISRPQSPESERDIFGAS
SMILES,% changes of population doubling time over control (HL-1),population doubling time (HL-1),% changes of population doubling time over control (MCF-7 [1]),population doubling time (MCF-7 [1]),% changes of population doubling time over control (SHSY5Y),population doubling time (SHSY5Y),% changes of population doubling time over control (Sk-Br-3 [2]),population doubling time (Sk-Br-3 [2]),% changes of population doubling time over control (BT132),population doubling time (BT132),"tumor volume, Day 7 (MCF-7 [3])","tumor volume, Day 1 (MCF-7 [3])",% changes of tumor volume over control (MCF-7 [3]),"tumor volume, Day 7 (SK-BR-3 [4])","tumor volume, Day 1 (SK-BR-3 [4])",% changes of tumor volume over control (SK-BR-3 [4]),effect on growth/proliferation of MCF-7 human breast cancer cells (MCF-7 cells),"inhibition of cell proliferation (MCF-7 cells; extracellular perfusion, cell line not given)",inhibition of EAG current (EAG)
"COc1cc(N)c(Cl)cc1C(=O)NC1CCN(CCCOc2ccc(F)cc2)CC1OC (stereo not shown) [Cisapride, cisapride]",47%,100.3 ± 9.8* hours,58%,71.7 ± 7.3* hours,57%,92.0 ± 8.3* hours,114%,174.3 ± 17.7* hours,62%,88.1 ± 9.0* hours,3.0 ± 0.4^+ cm^3,3.2 ± 0.5 cm^3,−42%,3.1 ± 0.3^+ cm^3,2.4 ± 1.3 cm^3,−45%,,,
"CN(CCOc1ccc(NS(C)(=O)=O)cc1)CCc1ccc(NS(C)(=O)=O)cc1 [Dofetilide, dofetilide]",30%,85.5 ± 9.2 h,55%,70.4 ± 6.2* hours,59%,95.2 ± 10.2* hours,128%,184.0 ± 16.6* hours,56%,84.8 ± 7.5* hours,,,,,,,,,
Cc1cccc(CCN2CCC(C(=O)c3ccc(NS(C)(=O)=O)cc3)CC2)n1 [E-4031],37%,93.5 ± 10.0* hours,43%,64.9 ± 11.5* hours,70%,101.8 ± 11.5* hours,98%,165.3 ± 15.2* hours,48%,80.5 ± 8.2* hours,3.7 ± 0.8^+ cm^3,3.5 ± 0.6 cm^3,−30%,4.1 ± 0.6*^+ cm^3,2.1 ± 1.0 cm^3,−28%,,,
CCCCc1oc2ccccc2c1C(=O)c1cc(I)c(OCCN(CC)CC)c(I)c1 [amiodarone],,,,,,,,,,,,,,,,,inhibitory effects,,
COc1ccc(CCN2CCC(Nc3nc4ccccc4n3Cc3ccc(F)cc3)CC2)cc1 [astemizole],,,,,,,,,,,,,,,,,,~23%,~20%
Cc1cc(N)c2ccccc2[n+]1CCCCCCCCCC[n+]1c(C)cc(N)c2ccccc21 [dequalinium],,,,,,,,,,,,,,,,,inhibitory effects,,
